Measurements from ChEMBL document CHEMBL1201862, “PubChem BioAssay data set” (2004).
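Where inhibition never reached the appropriate level, the endpoint shown equals the highest concentration tested. Otherwise, values were interpolated linearly from a five-concentration, 48-hour dose response in 96-well plates. GI50 = concentration required for 50% inhibition of growth.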 The source made the active and inactive calls. Rule as the data show it: active = GI50 up to about 1.1 µM and inactive = higher.

Key:
Test in all cases: inhibition of tumour cell growth, NCI panel, 48 h
HCT-15 = tested on: HCT-15
Malme-3M = tested on: Malme-3M
U-251 = tested on: U-251
K562 = tested on: K562
SF-539 = tested on: SF-539
SF-295 = tested on: SF-295
RPMI-8226 = tested on: RPMI-8226
SK-OV-3 = tested on: SK-OV-3
HT-29 = tested on: HT-29
COLO 205 = tested on: COLO 205
MDA-MB-231 = tested on: MDA-MB-231
MOLT-4 = tested on: MOLT-4
IGROV-1 = tested on: IGROV-1
HOP-92 = tested on: HOP-92
NCI/ADR-RES = tested on: NCI/ADR-RES
SNB-75 = tested on: SNB-75
HCT-116 = tested on: HCT-116
SF-268 = tested on: SF-268
T47D = tested on: T47D
HOP-62 = tested on: HOP-62
SK-MEL-2 = tested on: SK-MEL-2
786-0 = tested on: 786-0
PC-3 = tested on: PC-3
KM12 = tested on: KM12
SNB-19 = tested on: SNB-19
SK-MEL-5 = tested on: SK-MEL-5
NCI-H23 = tested on: NCI-H23
A498 = tested on: A498
SR = tested on: SR
ACHN = tested on: ACHN
UACC-257 = tested on: UACC-257
RXF 393 = tested on: RXF 393
MDA-N = tested on: MDA-N
OVCAR-8 = tested on: OVCAR-8
CAKI-1 = tested on: CAKI-1
BT-549 = tested on: BT-549
MCF7 = tested on: MCF7
SW-620 = tested on: SW-620
CCRF-CEM = tested on: CCRF-CEM
DU-145 = tested on: DU-145
OVCAR-3 = tested on: OVCAR-3
UACC-62 = tested on: UACC-62
TK-10 = tested on: TK-10
A549 = tested on: A549
NCI-H522 = tested on: NCI-H522
EKVX = tested on: EKVX
LOX IMVI = tested on: LOX IMVI
HL-60 = tested on: HL-60
SN12C = tested on: SN12C
MDA-MB-435 = tested on: MDA-MB-435
UO-31 = tested on: UO-31
OVCAR-5 = tested on: OVCAR-5
OVCAR-4 = tested on: OVCAR-4
SK-MEL-28 = tested on: SK-MEL-28
NCI-H460 = tested on: NCI-H460
Hs-578T = tested on: Hs-578T
M14 = tested on: M14
NCI-H226 = tested on: NCI-H226

Measured: GI50

NNC(=O)CC(=O)Nc1ccccc1Cl
inactive: Malme-3M > 100 µM | U-251 > 100 µM | K562 > 100 µM | SF-539 > 100 µM | SF-295 > 100 µM | RPMI-8226 > 100 µM | SK-OV-3 > 100 µM | HT-29 > 100 µM | COLO 205 > 100 µM | MDA-MB-231 > 100 µM | MOLT-4 > 100 µM | IGROV-1 > 100 µM | HOP-92 > 100 µM | NCI/ADR-RES > 100 µM | SNB-75 > 100 µM | HCT-116 > 100 µM | SF-268 > 100 µM | T47D > 100 µM | HOP-62 > 100 µM | SK-MEL-2 > 100 µM | 786-0 > 100 µM | PC-3 > 100 µM | KM12 > 100 µM | SNB-19 > 100 µM | SK-MEL-5 > 100 µM | NCI-H23 > 100 µM | A498 > 100 µM | SR > 100 µM | ACHN > 100 µM | UACC-257 > 100 µM | RXF 393 > 100 µM | MDA-N > 100 µM | OVCAR-8 > 100 µM | CAKI-1 > 100 µM | BT-549 > 100 µM | MCF7 > 100 µM | SW-620 > 100 µM | CCRF-CEM > 100 µM | DU-145 > 100 µM | OVCAR-3 > 100 µM | UACC-62 > 100 µM | TK-10 > 100 µM | A549 > 100 µM | NCI-H522 > 100 µM | EKVX > 100 µM | LOX IMVI > 100 µM | HL-60 > 100 µM | SN12C > 100 µM | MDA-MB-435 > 100 µM | UO-31 > 100 µM | OVCAR-5 > 100 µM | OVCAR-4 > 100 µM | SK-MEL-28 > 100 µM | NCI-H460 > 100 µM | Hs-578T > 100 µM
> 100 µM: HCT-15

COc1ccc(/C=C/C(=O)c2nc3ccccc3[nH]2)cc1
10.9 µM: HCT-15
inactive: Malme-3M 19 µM | U-251 13.8 µM | K562 4.88 µM | SF-539 8.32 µM | SF-295 21 µM | RPMI-8226 3.8 µM | SK-OV-3 21.2 µM | HT-29 7.03 µM | COLO 205 13.2 µM | M14 20.3 µM | MDA-MB-231 23.4 µM | MOLT-4 18 µM | IGROV-1 6.07 µM | HOP-92 14 µM | NCI/ADR-RES 18.2 µM | SNB-75 19.8 µM | HCT-116 5.37 µM | SF-268 15.2 µM | T47D 10.7 µM | HOP-62 25.4 µM | SK-MEL-2 28.6 µM | 786-0 11.6 µM | NCI-H226 5.32 µM | PC-3 21.8 µM | KM12 4.62 µM | SNB-19 24.2 µM | SK-MEL-5 17.9 µM | A498 26.4 µM | SR 2.71 µM | ACHN 15.1 µM | UACC-257 22 µM | RXF 393 15.5 µM | MDA-N 11.9 µM | OVCAR-8 21 µM | CAKI-1 33.3 µM | BT-549 22.5 µM | MCF7 8.38 µM | SW-620 13.5 µM | CCRF-CEM > 100 µM | DU-145 17.3 µM | OVCAR-3 17.8 µM | UACC-62 17.6 µM | TK-10 18.1 µM | A549 24.9 µM | NCI-H522 13.6 µM | EKVX 15.1 µM | LOX IMVI 9.91 µM | HL-60 9.79 µM | SN12C 25.7 µM | MDA-MB-435 11.7 µM | UO-31 15.7 µM | OVCAR-5 22 µM | OVCAR-4 21.1 µM | SK-MEL-28 24.5 µM | NCI-H460 20.5 µM | Hs-578T 21.3 µM
